What was measured:
Experiment in all cases: MIC, antibacterial and synergistic activity
Assay type in all cases: cell-based
[1] = tested on: E. cloacae JMI 36; settings: E. cloacae JMI 36 (P99)
[2] = tested on: E. coli JMI 4080
[3] = tested on: E.coli JMI 4103; settings: E.coli JMI 4103 (KPC-2, Tem-1, CMY-Type)
[4] = tested on: E. coli JMI 10767; settings: E. coli JMI 10767 (Wt)
[5] = tested on: P. aerug JMI 149; settings: P. aerug JMI 149 (Bla+++D+)
[6] = tested on: A. baumanii JMI 2659; settings: A. baumanii JMI 2659 (Ges-14 (Cpase))
[7] = tested on: K. pneumo JMI 2673; settings: K. pneumo JMI 2673 (CTX-M14 (ESBL)); substance alone
[8] = tested on: K. pneumo JMI 2673; settings: K. pneumo JMI 2673 (CTX-M14 (ESBL))
Experimental: (§1) In the Tables 10 - 12, compounds herein disclosed were tested in combination with various antibiotics against metallo β-lactamase producing bacteria. Table 3: Synergy of the inhibitor Ex. 1 (4 µg/mL) in combination with antibiotics

[9] = tested on: E. coli JMI 10768; settings: E. coli JMI 10768 (CTX-M15 (Weak ESBL))
Experimental: as §1

[10] = tested on: K. pneumo JMI 2674; settings: K. pneumo JMI 2674 (CTX-M15 (ESBL))
Experimental: as §1

[11] = tested on: E. coli JMI 10770; settings: E. coli JMI 10770 (CTX-M15 (Hyper ESBL))
Experimental: as §1

[12] = tested on: K.pneumo JMI 4109; settings: K.pneumo JMI 4109 (SHV-1, SHV-12)
Experimental: as §1

[13] = tested on: P. aerug JMI 2686; settings: P. aerug JMI 2686 (KPC-2 (Cpase))
Experimental: as §1

[14] = tested on: E. coli JMI 10767; settings: E. coli JMI 10767 (Wt); remark: listed apart in the source
Experimental: as §1

[15] = tested on: K. pneumo JMI 4088; settings: K. pneumo JMI 4088 (KPC-3 (Cpase))
Experimental: as §1

[16] = tested on: K. pneumo JMI 2699; settings: K. pneumo JMI 2699 (VIM-1, CTX-M3)
Experimental: as §1

[17] = tested on: E. coli JMI 2665
Experimental: as §1

[18] = tested on: E. coli JMI 2671
Experimental: as §1

[19] = tested on: K. pneumo JMI 2674; settings: K. pneumo JMI 2674 (CTX-M15 (ESBL)); substance alone
[20] = tested on: K. pneumo JMI 4088; settings: K. pneumo JMI 4088 (KPC-3 (Cpase)); substance alone
[21] = tested on: K. pneumo JMI 2681; settings: K. pneumo JMI 2681 (Oxa-48 (Cpase))
[22] = tested on: E. coli ATCC 25922; settings: E. coli ATCC 25922 (Wt)
[23] = tested on: E. coli JMI 10768; settings: E. coli JMI 10768 (CTX-M15 (Weak ESBL)); Meropenem + inhibitor at 4 µg/mL
[24] = Aztreonam + inhibitor at 4 µg/mL
[25] = Ceftazidime + inhibitor at 4 µg/mL
[26] = Meropenem + inhibitor at 4 µg/mL

SMILES: NCCONC(=O)[C@@H]1CC[C@@H]2CN1C(=O)N2OS(=O)(=O)O [Ex. 3, (2S,5R)-N-(2-Aminoethoxy)-7-oxo-6-(sulfooxy)-1,6-diazabicyclo[3.2.1]octane-2-carboxamide]
- MIC Aztreonam + inhibitor [1, 24]: >4 µg/mL
- MIC Ceftazidime + inhibitor [1, 25]: 0.5 µg/mL
- MIC Meropenem + inhibitor [1, 26]: 0.062 µg/mL
- MIC ([1]; Enterobacter cloacae, JMI36, substance alone, read-out: MIC): > 16 µg/mL
- MIC Aztreonam + inhibitor ([2]; E. coli JMI 4080 (Tem-10), Aztreonam + inhibitor at 4 µg/mL): ≤0.062 µg/mL
- MIC Ceftazidime + inhibitor ([2]; E. coli JMI 4080 (Tem-10), Ceftazidime + inhibitor at 4 µg/mL): ≤0.25 µg/mL
- MIC Meropenem + inhibitor ([2]; E. coli JMI 4080 (Tem-10), Meropenem + inhibitor at 4 µg/mL): ≤0.0312 µg/mL
- MIC ([2]; Escherichia coli, JMI4080, E. coli JMI 4080 (Tem-10), substance alone): 2 µg/mL
- MIC Aztreonam + inhibitor [3, 24]: ≤0.062 µg/mL
- MIC Ceftazidime + inhibitor [3, 25]: ≤0.25 µg/mL
- MIC Meropenem + inhibitor [3, 26]: ≤0.0312 µg/mL
- MIC ([3]; Escherichia coli, JMI4103, substance alone): 4 µg/mL
- MIC Meropenem + inhibitor [4, 26]: ≤0.0312 µg/mL
- MIC ([4]; Escherichia coli, JMI10767, substance alone): 2 µg/mL
- MIC Aztreonam + inhibitor [5, 24]: >4 µg/mL
- MIC Ceftazidime + inhibitor [5, 25]: 4 µg/mL
- MIC Meropenem + inhibitor [5, 26]: 0.25 µg/mL
- MIC ([5]; substance alone, read-out: MIC): > 16 µg/mL
- MIC Aztreonam + inhibitor [6, 24]: >4 µg/mL
- MIC Ceftazidime + inhibitor [6, 25]: >16 µg/mL
- MIC Meropenem + inhibitor [6, 26]: 2 µg/mL
- MIC ([6]; Acinetobacter baumannii, JMI2659, substance alone, read-out: MIC): > 16 µg/mL
- MIC [7]: > 16 µg/mL
- MIC Aztreonam + inhibitor [8, 24]: 0.125 µg/mL
- MIC Ceftazidime + inhibitor [8, 25]: ≤0.25 µg/mL
- MIC Meropenem + inhibitor [8, 26]: ≤0.0312 µg/mL
- MIC Aztreonam + inhibitor [9, 24]: ≤0.062 µg/mL
- MIC Ceftazidime + inhibitor [9, 25]: ≤0.25 µg/mL
- MIC ([9]; Escherichia coli, JMI10768, substance alone): 4 µg/mL
- MIC Aztreonam + inhibitor [10, 24]: 0.5 µg/mL
- MIC Ceftazidime + inhibitor [10, 25]: ≤0.25 µg/mL
- MIC Meropenem + inhibitor [10, 26]: 0.125 µg/mL
- MIC Aztreonam + inhibitor [11, 24]: 8 µg/mL
- MIC Ceftazidime + inhibitor [11, 25]: 2 µg/mL
- MIC Meropenem + inhibitor [11, 26]: 0.062 µg/mL
- MIC Aztreonam + inhibitor [12, 24]: ≤0.062 µg/mL
- MIC Ceftazidime + inhibitor [12, 25]: ≤0.25 µg/mL
- MIC Meropenem + inhibitor [12, 26]: ≤0.0312 µg/mL
- MIC Aztreonam + inhibitor [13, 24]: >4 µg/mL
- MIC Ceftazidime + inhibitor [13, 25]: 16 µg/mL
- MIC Meropenem + inhibitor [13, 26]: >2 µg/mL
- MIC Aztreonam + inhibitor [14, 24]: ≤0.062 µg/mL
- MIC Ceftazidime + inhibitor [14, 25]: ≤0.25 µg/mL
- MIC Aztreonam + inhibitor [15, 24]: 1 µg/mL
- MIC Ceftazidime + inhibitor [15, 25]: ≤0.25 µg/mL
- MIC Meropenem + inhibitor [15, 26]: 0.25 µg/mL
- MIC Aztreonam + inhibitor [16, 24]: ≤0.062 µg/mL
- MIC Ceftazidime + inhibitor [16, 25]: ≤0.25 µg/mL
- MIC Meropenem + inhibitor [16, 26]: ≤0.0312 µg/mL
- MIC ([16]; substance alone, read-out: MIC): 4 µg/mL
- MIC Aztreonam + inhibitor ([17]; E. coli JMI 2665 (CMY-2 (Plasmid Cpase)), Aztreonam + inhibitor at 4 µg/mL): ≤0.062 µg/mL
- MIC Ceftazidime + inhibitor ([17]; E. coli JMI 2665 (CMY-2 (Plasmid Cpase)), Ceftazidime + inhibitor at 4 µg/mL): ≤0.25 µg/mL
- MIC ([17]; Escherichia coli, JMI2665): 2 µg/mL
- MIC Aztreonam + inhibitor ([18]; E. coli JMI 2671 (VIM-19 (Cpase)), Aztreonam + inhibitor at 4 µg/mL): ≤0.062 µg/mL
- MIC Ceftazidime + inhibitor ([18]; E. coli JMI 2671 (VIM-19 (Cpase)), Ceftazidime + inhibitor at 4 µg/mL): ≤0.25 µg/mL
- MIC Meropenem + inhibitor ([18]; E. coli JMI 2671 (VIM-19 (Cpase)), Meropenem + inhibitor at 4 µg/mL): ≤0.0312 µg/mL
- MIC ([18]; Escherichia coli, JMI2671, E. coli JMI 2671 (VIM-19 (Cpase)), substance alone): 2 µg/mL
- MIC [19]: > 16 µg/mL
- MIC [20]: 2 µg/mL
- MIC Aztreonam + inhibitor [21, 24]: 1 µg/mL
- MIC Ceftazidime + inhibitor [21, 25]: ≤0.25 µg/mL
- MIC Meropenem + inhibitor [21, 26]: 0.5 µg/mL
- MIC ([21]; substance alone, read-out: MIC): > 16 µg/mL
- MIC Aztreonam + inhibitor [22, 24]: ≤0.062 µg/mL
- MIC Ceftazidime + inhibitor [22, 25]: ≤0.25 µg/mL
- MIC Meropenem + inhibitor [22, 26]: ≤0.0312 µg/mL
- MIC ([22]; Escherichia coli, ATCC25922, substance alone): 2 µg/mL
- MIC Meropenem + inhibitor [23]: 0.062 µg/mL

— patent publication EP2931723B1, “NEW BICYCLIC COMPOUNDS AND THEIR USE AS ANTIBACTERIAL AGENTS AND -LACTAMASE INHIBITORS” (Fedora Pharmaceuticals Inc., priority 2012, dated 2014)
